SMILES strings stand for the structures.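 Cells were grown in 96-well plates and exposed to each compound for 48 hours at five concentrations; endpoints were interpolated linearly between bracketing concentrations, or set to the highest concentration if not reached. GI50 is the concentration that inhibits growth by half. TGI: concentration producing complete growth inhibition.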

Test systems include ACHN renal; BT-549 breast; DU-145 prostate; HCT-15 colon; HOP-62 NSCLC; M14 melanoma; MDA-MB-435; OVCAR-3 ovarian; SK-MEL-5 melanoma; SNB-75 CNS.
Common to all, as to test: NCI anticancer screen, dose series, 48 h

On to `COc1ccc(/C=C(\C#N)n2nnc3c(F)cccc32)cc1`, for which the GI50 is 0.689 µM with ACHN renal; 0.433 µM in the assay with BT-549 breast; 0.503 µM in the assay with DU-145 prostate; 0.133 µM with HCT-15 colon; 0.621 µM in the assay with HOP-62 NSCLC; 0.245 µM in the assay with M14 melanoma. Also, the GI50 with MDA-MB-435 was 0.052 µM; in the assay on OVCAR-3 ovarian, 0.283 µM; with SK-MEL-5 melanoma, 0.47 µM; with SNB-75 CNS, 0.17 µM. Further, the TGI in the assay on ACHN renal was above 51.6 µM; in the assay with BT-549 breast, above 34.6 µM; with DU-145 prostate, above 40.2 µM; in the assay with HCT-15 colon, above 100 µM; with HOP-62 NSCLC it was above 83.1 µM; in the assay on M14 melanoma it was 1.57 µM. Besides, the TGI in the assay with MDA-MB-435 is 0.371 µM; in the assay on OVCAR-3 ovarian, 2.53 µM; with SK-MEL-5 melanoma, above 33.7 µM; with SNB-75 CNS, 0.517 µM.
Consider `Cc1cc(C#Cc2ccc(C(C)(C)C)cc2)ccc1-n1c(/C=C/c2ccc(O)cc2O)nc2ccccc2c1=O`, for which the GI50 in the assay with ACHN renal is 3.26 µM; in the assay on BT-549 breast it was 8.6 µM; in the assay on DU-145 prostate, 3.42 µM; with HCT-15 colon, 2.74 µM; with HOP-62 NSCLC it was 5.88 µM; in the assay on M14 melanoma, 5.91 µM. Further, the GI50 in the assay with MDA-MB-435 was 3.08 µM; in the assay on OVCAR-3 ovarian, 3.23 µM; in the assay on SK-MEL-5 melanoma, 1.77 µM; with SNB-75 CNS it was 1.87 µM. For the same compound, the TGI stood at 13.4 µM with ACHN renal; 33.1 µM in the assay with BT-549 breast; 13.3 µM in the assay on DU-145 prostate; 10.2 µM with HCT-15 colon; 20.5 µM with HOP-62 NSCLC; 25.6 µM in the assay with M14 melanoma. Moreover, the TGI stood at 12.3 µM in the assay on MDA-MB-435, 12.5 µM in the assay with OVCAR-3 ovarian, 3.98 µM in the assay with SK-MEL-5 melanoma and 16 µM with SNB-75 CNS.
For the compound `CN(CCNCc1ccccn1)CCNCc1ccccn1`, the GI50 in the assay on ACHN renal is 2.2 µM; with BT-549 breast, 1.98 µM; with DU-145 prostate, 3.6 µM; with HCT-15 colon it was 2.96 µM; with HOP-62 NSCLC, 3.85 µM; with M14 melanoma, 2.26 µM. Further, the GI50 in the assay with MDA-MB-435 is 2.21 µM; in the assay with OVCAR-3 ovarian it was 2.09 µM; with SK-MEL-5 melanoma, 1.75 µM; with SNB-75 CNS, 3.04 µM. For the same compound, the TGI with ACHN renal amounted to 5.82 µM; in the assay with BT-549 breast, 4.63 µM; in the assay with DU-145 prostate it was 12.4 µM; with HCT-15 colon, 12.6 µM; in the assay on HOP-62 NSCLC, 22.6 µM; with M14 melanoma, 5.93 µM. Moreover, the TGI amounted to 4.93 µM in the assay on MDA-MB-435, 4.27 µM with OVCAR-3 ovarian, 3.16 µM in the assay on SK-MEL-5 melanoma and 16 µM with SNB-75 CNS.
Regarding `c1ccc2c(c1)Nc1ccncc1S2`, the GI50 in the assay with ACHN renal was 17.9 µM; in the assay on BT-549 breast it was 29.6 µM; in the assay with DU-145 prostate, 32.3 µM; with HCT-15 colon it was 28 µM; in the assay with HOP-62 NSCLC, 19.5 µM; with M14 melanoma, 32.4 µM. Besides, the GI50 was 23.2 µM in the assay on MDA-MB-435, 18.6 µM in the assay on OVCAR-3 ovarian, 25.8 µM in the assay with SK-MEL-5 melanoma and 18.1 µM in the assay with SNB-75 CNS. Moreover, the TGI in the assay with ACHN renal, in the assay on BT-549 breast, in the assay with DU-145 prostate, in the assay with HCT-15 colon, with HOP-62 NSCLC and with M14 melanoma was above 100 µM each time. For the same compound, the TGI is above 100 µM with MDA-MB-435, 57 µM in the assay with OVCAR-3 ovarian, above 100 µM with SK-MEL-5 melanoma and 56.6 µM in the assay on SNB-75 CNS.
As for `COC1=C(OC)C(=O)C(SC/C=C(\C)CCCC(C)CCCC(C)CCCC(C)C)=CC1=O` (centres undefined), the GI50 with ACHN renal is 2.04 µM; in the assay with BT-549 breast, 0.993 µM; in the assay with DU-145 prostate it was 4.27 µM; with HCT-15 colon, 1.38 µM; in the assay with HOP-62 NSCLC, 3.05 µM; in the assay on M14 melanoma, 0.743 µM. In addition, the GI50 was 0.845 µM in the assay on MDA-MB-435, 0.857 µM with OVCAR-3 ovarian, 0.341 µM in the assay on SK-MEL-5 melanoma and 0.972 µM in the assay with SNB-75 CNS. The TGI with ACHN renal was above 100 µM; in the assay on BT-549 breast it was 10.2 µM; in the assay on DU-145 prostate, above 100 µM; in the assay with HCT-15 colon, above 100 µM; with HOP-62 NSCLC, above 100 µM; in the assay with M14 melanoma, above 100 µM. Besides, the TGI is above 38.7 µM in the assay on MDA-MB-435, above 100 µM in the assay on OVCAR-3 ovarian, 1.73 µM in the assay on SK-MEL-5 melanoma and above 26.1 µM with SNB-75 CNS.
Turning to `CCc1cccc(C)c1NC(=O)c1sc2nc3c(cc2c1N)C(=O)CCC3`, the GI50 in the assay with ACHN renal is 0.872 µM; in the assay with BT-549 breast, 8.58 µM; in the assay with DU-145 prostate, 0.514 µM; in the assay on HCT-15 colon, 0.495 µM; in the assay on HOP-62 NSCLC it was 10.7 µM; in the assay on M14 melanoma, 0.43 µM. Also, the GI50 is 0.159 µM in the assay on MDA-MB-435, 0.375 µM in the assay on OVCAR-3 ovarian, 0.353 µM with SK-MEL-5 melanoma and 0.527 µM in the assay with SNB-75 CNS. For the same compound, the TGI in the assay on ACHN renal was above 100 µM; in the assay on BT-549 breast, above 100 µM; with DU-145 prostate, above 100 µM; with HCT-15 colon, above 100 µM; with HOP-62 NSCLC it was above 100 µM; with M14 melanoma, 25.8 µM. Besides, the TGI is 2.74 µM with OVCAR-3 ovarian, 5.89 µM in the assay with SK-MEL-5 melanoma and above 100 µM in the assay with SNB-75 CNS.
